In patent publication US20260226074A1, “FUNGICIDAL COMPOSITIONS” (SYNGENTA CROP PROTECTION AG, priority 2023, published 2026):

What was measured:
Type in all cases: cell-based
Conditions in all cases: single compound
[1] = tested on: Glomerella lagenarium Syn. Colletotrichum lagenarium; assay: Glomerella lagenarium growth inhibition in nutrient broth (microtiter plate, photometric, 72 hrs, 620 nm)
Description: (§1) Glomerella lagenarium Syn. Colletotrichum lagenarium (Anthracnose of Cucurbits); Conidia of the fungus from cryogenic storage were directly mixed into nutrient broth (PDB potato dextrose broth). A DMSO solution of the test compounds was placed into a microtiter plate (96-well format) and the nutrient broth containing the fungal spores was added to it. The test plates were incubated at 24 C and the inhibition of growth was determined photometrically after 72 hrs at 620 nm.

[2] = tested on: Sclerotinia sclerotiorum; assay: Sclerotinia sclerotiorum growth inhibition in nutrient broth (microtiter plate, photometric, 72 hrs, 620 nm)
Description: Sclerotinia sclerotiorum (Cottony Rot, White Mold, Etc.); Mycelial fragments of the fungus prepared from a fresh liquid culture were directly mixed into nutrient broth (PDB potato dextrose broth). A DMSO solution of the test compounds was placed into a microtiter plate (96-well format) and the nutrient broth containing the fungal spores was added to it. The test plates were incubated at 24 C and the inhibition of growth was determined photometrically after 72 hrs at 620 nm

[3] = tested on: Alternaria solani; assay: Alternaria solani growth inhibition in nutrient broth (microtiter plate, photometric, 48 hrs)
Description: as §1, with “Alternaria solani (Early Blight Tomato/Potato):” for “Glomerella lagenarium Syn. Colletotrichum lagenarium (Anthracnose of Cucurbits);”, “48 hrs.” for “72 hrs at 620 nm.”

[4] = tested on: Mycosphaerella arachidis Syn. Cercospora arachidicola; assay: Mycosphaerella arachidis growth inhibition in nutrient broth (microtiter plate, photometric, 5-6 days, 620 nm)
Description: as §1, with “Mycosphaerella arachidis” for “Glomerella lagenarium”, “Cercospora arachidicola (Brown Leaf Spot” for “Colletotrichum lagenarium (Anthracnose”, “Peanut):” for “Cucurbits);”, “5-6 days” for “72 hrs”, “nm” for “nm.”

[5] = tested on: Septoria tritici; assay: Septoria tritici growth inhibition in nutrient broth (microtiter plate, photometric, 72 hrs)
Description: as §1, with “Septoria tritici (Leaf Blotch):” for “Glomerella lagenarium Syn. Colletotrichum lagenarium (Anthracnose of Cucurbits);”, “hrs.” for “hrs at 620 nm.”

`COC(=O)NCc1cc(/C(C)=N/OCc2cccc(C)n2)ccc1Cl` [Pyribencarb, pyribencarb] was tested, and the “Observed Activity” value ([1]; 0.22 ppm) was 20% and the “Observed Activity” value ([2]; 0.008 ppm) was 20%.

With `CCn1nccc1-c1c(Cl)cccc1Cc1cc2ccc(F)c(F)c2nc1C` [3-[[3-chloro-2-(2-ethylpyrazol-3-yl)phenyl]methyl]-7,8-difluoro-2-methyl-quinoline] the “Observed Activity” value ([1]; 0.074 ppm) was 20%, the “Observed Activity” value ([1]; 0.22 ppm) was 90% and the “Observed Activity” value ([1]; 0.74 ppm) was 20%. For the same compound, the “Observed Activity” value ([2]; 2 ppm) was 0% and the “Observed Activity” value ([2]; 6 ppm) was 20%.

With `Cn1nnnc1/C(=N\OCc1cccc(NC(=O)OC(C)(C)C)n1)c1ccccc1` [Picarbutrazox, picarbutrazox] the “Observed Activity” value ([2]; 6.66 ppm) was 0% and the “Observed Activity” value ([2]; 20 ppm) was 0%.

For `CCCn1nccc1-c1c(F)cccc1Nc1nc2ccc(F)c(F)c2nc1C` [5,6-difluoro-N-[3-fluoro-2-(2-propylpyrazol-3-yl)phenyl]-3-methyl-quinoxalin-2-amine], the “Observed Activity” value ([3]; 0.25 ppm) was 20%, the “Observed Activity” value ([3]; 0.74 ppm) was 20% and the “Observed Activity” value ([1]; 0.66 ppm) was 70%. The “Observed Activity” value ([2]; 6.66 ppm) was 0% and the “Observed Activity” value ([2]; 20 ppm) was 0%.

For `Cc1ccc(N(SC(F)(Cl)Cl)S(=O)(=O)N(C)C)cc1` [Tolylfluanid, tolylfluanid], the “Observed Activity” value ([1]; 0.025 ppm) was 20%, the “Observed Activity” value ([1]; 0.074 ppm) was 50% and the “Observed Activity” value ([4]; 0.22 ppm) was 20%. For the same compound, the “Observed Activity” value ([4]; 0.66 ppm) was 90%, the “Observed Activity” value ([2]; 0.025 ppm) was 0% and the “Observed Activity” value ([2]; 0.074 ppm) was 0%. The “Observed Activity” value ([2]; 0.22 ppm) was 90%.

In the case of `Cc1cc(C2=NOCC(Cc3ccc(Br)cc3C)N2)c(Oc2cccc(Cl)c2F)nn1` (stereo not shown) [Compound A-1.3, 5-[(4-bromo-2-methyl-phenyl)methyl]-3-[3-(3-chloro-2-fluoro-phenoxy)-6-methyl-pyridazin-4-yl]-5,6-dihydro-4H-1,2,4-oxadiazine], the “Observed Activity” value ([1]; 0.02 ppm) is reported as 20%, the “Observed Activity” value ([1]; 0.2 ppm) is reported as 90% and the “Observed Activity” value ([4]; 0.02 ppm) is reported as 0%. The “Observed Activity” value ([4]; 0.2 ppm) was 0%, the “Observed Activity” value ([2]; 0.02 ppm) was 20% and the “Observed Activity” value ([2]; 0.2 ppm) was 70%. The “Observed Activity” value ([5]; 0.2 ppm) was 0%.

For `Cc1ccc(CC2CON=C(c3cc(C)nnc3Oc3cccc(Cl)c3F)N2)c(Cl)c1` (stereo not shown) [Compound A-1.1, 3-[3-(3-chloro-2-fluoro-phenoxy)-6-methyl-pyridazin-4-yl]-5-[(2-chloro-4-methyl-phenyl)methyl]-5,6-dihydro-4H-1,2,4-oxadiazine], the “Observed Activity” value ([3]; 0.01 ppm) was 50%, the “Observed Activity” value ([1]; 0.01 ppm) was 20% and the “Observed Activity” value ([1]; 0.1 ppm) was 90%. For the same compound, the “Observed Activity” value ([5]; 0.01 ppm) was 0% and the “Observed Activity” value ([5]; 0.1 ppm) was 0%.

For `CCn1nccc1-c1ccccc1Nc1nc2ccc(F)c(F)c2nc1C` [N-[2-(2-ethylpyrazol-3-yl)phenyl]-5,6-difluoro-3-methyl-quinoxalin-2-amine], the “Observed Activity” value ([3]; 0.08 ppm) was 20%, the “Observed Activity” value ([3]; 0.246 ppm) was 20% and the “Observed Activity” value ([3]; 0.74 ppm) was 20%. The “Observed Activity” value ([2]; 6.66 ppm) was 0% and the “Observed Activity” value ([2]; 20 ppm) was 0%.

With `CC(Oc1ccc(Cl)cc1Cl)C(=O)NC(C)(C#N)C(C)C` (stereo not shown) [Fenoxanil, fenoxanil] the “Observed Activity” value ([2]; 2.22 ppm) was 0%, the “Observed Activity” value ([2]; 6.66 ppm) was 0% and the “Observed Activity” value ([2]; 20 ppm) was 0%.

In the case of `CCCn1nccc1-c1c(Cl)cccc1Nc1cc2ccc(F)c(F)c2nc1C` [N-[3-chloro-2-(2-propylpyrazol-3-yl)phenyl]-7,8-difluoro-2-methyl-quinolin-3-amine], the “Observed Activity” value ([3]; 0.008 ppm) is reported as 0%, the “Observed Activity” value ([3]; 0.025 ppm) is reported as 20% and the “Observed Activity” value ([2]; 0.66 ppm) is reported as 0%. For the same compound, the “Observed Activity” value ([2]; 2 ppm) was 0%, the “Observed Activity” value ([5]; 0.008 ppm) was 0% and the “Observed Activity” value ([5]; 0.025 ppm) was 0%. For the same compound, the “Observed Activity” value ([5]; 0.074 ppm) was 20% and the “Observed Activity” value ([5]; 0.22 ppm) was 20%.
